Data on 4 compounds can be found in PMC12321279, “Novel 4,5‐Dihydrothiazole‐Phenylpiperazine Derivatives: Synthesis, Docking Studies and Pharmacological Evaluation as Serotonergic Agents” (Chemmedchem, 2025).

One test deals with T1, 5‐HT2C receptor (Rattus norvegicus, UniProt P08909).
T1 construct: 10 μM pargyline and 160μg of the frontal cortex membrane suspension; from tissue; host or cells: rat (Sprague-Dawley) frontal cortex membranes
T1 sequence (P08909 33-460): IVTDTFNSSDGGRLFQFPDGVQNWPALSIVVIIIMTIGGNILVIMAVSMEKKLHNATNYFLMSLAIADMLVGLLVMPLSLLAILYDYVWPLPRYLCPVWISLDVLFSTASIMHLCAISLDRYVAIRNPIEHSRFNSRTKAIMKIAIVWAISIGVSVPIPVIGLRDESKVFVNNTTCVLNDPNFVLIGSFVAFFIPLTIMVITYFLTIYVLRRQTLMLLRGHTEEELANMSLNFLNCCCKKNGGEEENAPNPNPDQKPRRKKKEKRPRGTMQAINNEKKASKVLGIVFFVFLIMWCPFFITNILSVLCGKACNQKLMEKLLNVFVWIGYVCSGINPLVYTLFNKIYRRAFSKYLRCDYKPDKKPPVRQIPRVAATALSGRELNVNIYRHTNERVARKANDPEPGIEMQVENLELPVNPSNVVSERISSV
Nature of the test: 5‐HT2C competition binding assay ([3H]mesulergine, frontal cortex membranes). The following applies: 5 nM [3H]mesulergine, 95% CI in brackets, read-out: 5‐HT2C Ki (95% CI). On the procedure:
(§1) Sprague‐Dawley rats were sacrificed by isoflurane overdose. Brains were rapidly removed and placed on ice. Hippocampi (for the 5‐HT1A assay) and frontal cortices (for the 5‐HT2A and 5‐HT2C assays) were dissected on a Petri dish. The tissue from 10 rats was homogenized in 30 vol. homogenization buffer (50 mM Tris–HCl, […], 1 mM EDTA, 1 mM dithiothreitol) with a handheld Teflon‐glass homogenizer. The homogenate was centrifuged at 48,000 × g at 4 °C for 15 min. The pellet was suspended and homogenized in the homogenization buffer and incubated for 10 min. at 36 °C. The centrifugation and suspension steps were repeated twice. The final pellet was homogenized in 5 vol. 50 mM Tris–HCl, pH = 7.4 buffer and stored at −80 °C for no longer than 6 months. […] For the 5‐HT2C assay, compounds were incubated in duplicate with 5 nM [^3H]mesulergine (specific activity: 80.2 Ci mmol^−1, Revvity, MA, USA) for 60 min. at 36 °C in a 50 mM Tris‐HCl (pH 7.4) buffer, supplemented with 5 mM MgCl2, 140 mM NaCl, 1 mM DTT, 1 mM CaCl2, 10 μM pargyline and 160μg of the frontal cortex membrane suspension. Non‐specific binding was determined with 10μM serotonin. The final DMSO concentration in the assay was 5%. After incubation, the reaction mixture was deposited onto Unifilter GF/C plates (Revvity, MA, USA) presoaked in 0.4% PEI (or 0.4% PEI and 0.5% Triton X‐100 for the 5‐HT2C assay) for 1 h with the FilterMate‐96 Harvester (Revvity, MA, USA). Then, each well was washed with 2 mL of 50 mM Tris–HCl (pH 7.4) buffer to separate bound ligands from free and the plates were left to dry overnight. Then, 35μl of Microscint‐20 scintillation fluid (Revvity, MA, USA) was added to each filter well and left to equilibrate for 2h. Filter‐bound radioactivity was counted in a MicroBeta2 LumiJet scintillation counter (Revvity, MA, USA). Binding curves were fitted with one site non‐linear regression. Binding affinity (pKi and Ki) for each compound was calculated from the […] values with the Cheng‐Prusoff equation from two separate experiments.

In test [1] the target is T2, 5‐HT2A receptor (Rattus norvegicus, UniProt P14842). Nature of the test: 5‐HT2A competition binding assay ([3H]ketanserin, frontal cortex membranes). The arrangement: from tissue; host or cells: rat (Sprague-Dawley) frontal cortex membranes. The note with it: 1 nM [3H]ketanserin, 95% CI in brackets, read-out: 5‐HT2A Ki (95% CI).
T2 sequence (P14842 whole entry): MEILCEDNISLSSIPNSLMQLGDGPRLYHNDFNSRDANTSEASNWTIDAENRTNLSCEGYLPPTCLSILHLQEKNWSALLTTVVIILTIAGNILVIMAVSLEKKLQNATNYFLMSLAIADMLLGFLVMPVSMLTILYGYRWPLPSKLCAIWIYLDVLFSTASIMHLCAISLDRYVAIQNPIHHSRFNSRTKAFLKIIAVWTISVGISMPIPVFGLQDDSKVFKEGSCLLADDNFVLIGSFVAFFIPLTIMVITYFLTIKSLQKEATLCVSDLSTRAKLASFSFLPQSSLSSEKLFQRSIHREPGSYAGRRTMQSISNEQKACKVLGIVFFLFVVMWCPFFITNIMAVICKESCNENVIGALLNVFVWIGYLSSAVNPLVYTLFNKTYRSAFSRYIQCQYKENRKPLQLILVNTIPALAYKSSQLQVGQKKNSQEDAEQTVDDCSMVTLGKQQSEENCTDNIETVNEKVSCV
For test [2], the target named is T2, 5‐HT2A receptor. Nature of the test: Inhibition of 5‐HT‐evoked contractions in isolated rat ileum. The note with it: 5‐HT 10^−5 M, compounds 10^−8–10^−5 M; for Emax: read-out: EMAX, maximal inhibitory effect on 5‐HT‐induced contractions in the rat ileum; for IC50: IC50, inhibition of 5‐HT‐induced contractions in the rat ileum, contact time 10 min. The arrangement: segments (1–1.5 cm) of ileum were removed, flushed of luminal contents, and placed in Krebs solution; from tissue; host or cells: isolated rat (Sprague-Dawley) ileum segments. On the procedure:
Male rats (Sprague‐Dawley, 160–200 g; Charles River Laboratories; Calco, Italy) were manipulated and cared for in strict compliance with the principles of laboratory animal care. Experimental procedures were conducted in conformity with Italian (D.L. 26/2014) and European (directive 2010/63/EU) regulations on the protection of animals used for scientific purposes and approved by the Italian Ministry. Animal housing complied with recent pharmacological guidance.^[ [40] ^] All animals weighing 160–200 g were used after a 1‐week acclimation period (temperature 23 ± 2 °C; humidity 60%, free access to water and standard food).
The segments were prepared as previously described:^[ [41] ^] the segments were set up in such a way as to record contractions mainly from the longitudinal axis, in an organ bath containing 20 mL of Krebs solution, bubbled with 95% O2 and 5% CO2 and maintained at 37 °C. The tissues were connected to an isotonic transducer (load: 0.5 g), connected to Power Lab system (Ugo Basile, Comerio, Italy). Ileal segments were equilibrated for 60 min^[ [16] ^] followed by three repeated additions of submaximal concentration of 5‐HT (10^−5 M) in order to record stable control contractions. […] The contact time for each concentration was 10 min. The compounds were dissolved in DMSO. […] Results are expressed as mean (SEM). […] The IC50 and Emax values were calculated with the aid of a computer program (GraphPad Prism 5).

The target in test [3] is T3, 5‐HT1A receptor (Rattus norvegicus, UniProt P19327).
T3 construct: 80 μg of hippocampal membrane suspension (the 5‐HT1A assay); from tissue; host or cells: rat (Sprague-Dawley) hippocampus membranes
T3 sequence (P19327 1-422): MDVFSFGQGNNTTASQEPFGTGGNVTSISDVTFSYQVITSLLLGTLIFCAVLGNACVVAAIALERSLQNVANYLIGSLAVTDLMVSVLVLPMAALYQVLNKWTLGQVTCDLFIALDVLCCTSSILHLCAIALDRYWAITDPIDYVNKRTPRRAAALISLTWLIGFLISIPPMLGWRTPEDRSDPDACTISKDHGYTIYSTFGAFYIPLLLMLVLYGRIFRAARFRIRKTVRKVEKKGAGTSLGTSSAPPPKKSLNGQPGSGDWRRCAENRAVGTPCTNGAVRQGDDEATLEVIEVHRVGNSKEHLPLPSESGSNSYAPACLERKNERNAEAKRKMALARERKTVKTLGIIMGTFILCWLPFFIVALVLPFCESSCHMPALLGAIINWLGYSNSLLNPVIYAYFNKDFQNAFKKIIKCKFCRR
Nature of the test: 5‐HT1A competition binding assay ([3H]8‐OH‐DPAT, hippocampal membranes). The note with it: 1 nM [3H]8‐OH‐DPAT, 95% CI in brackets, read-out: 5‐HT1A Ki (95% CI). On the procedure: as §1

Test [4] has as its target T3, 5‐HT1A receptor. Nature of the test: 5‐HT1A receptor activation in the [35S]GTP‐γ‐S assay (hippocampal membranes). The note with it: [35S]GTPγS; for EC50: read-out: EC50 (95% CI, μM), 5‐HT1A receptor G‐protein stimulation. The class given is biochemical. On the procedure: Seven compound concentrations equally spaced on a log scale (10–4 M to 10–10 M) were incubated in duplicate with hippocampal membrane preparations (5μg per well) in assay buffer (50 mM Tris‐HCl, pH = 7.4, 1 mM EGTA, 3 mM MgCl2, 100 mM NaCl, and 30 μM GDP) and 0.08 nM [^35S]GTP‐γ‐S (specific activity: 1250 Ci mmole^−1, Revvity). Nonspecific binding was determined with 10μM of unlabeled GTP‐γ‐S. The final DMSO concentration in the assay was 5%. The reaction mixture was incubated for 90 min. at 30 °C on an orbital shaker set at 250 rpm. Next, the reaction mixture was deposited under vacuum with the FilterMate Harvester (Revvity, USA) onto Unifilter GF/C Plates (Revvity, MA, USA) presoaked with wash buffer (50 mM Tris‐HCl, pH = 7.4). The wells were then rapidly washed with 2 mL of wash buffer. Filter plates were dried overnight at room temperature. Once completely dry, 35 μl of MicroScint PS (Revvity, MA, USA) scintillation fluid was added to each well. Radioactivity was counted in a MicroBeta2 LumiJet scintillation counter (Revvity, MA, USA). Data were analyzed with GraphPad Prism 5.0 software (GraphPad Software, San Diego California USA, www.graphpad.com). The curves were fitted with three‐parameter non‐linear regression model.

The mark [5] stands for this setting: rat hippocampal membranes, 95% CI in brackets.

Usually Ki stands for a measure of affinity in units of concentration, obtained from inhibition or displacement. Broadly, the Emax is the maximal effect, on the per cent scale that the assay sets. Usually IC50 stands for the midpoint of a concentration-inhibition curve. A lower IC50 goes with greater potency. Broadly, the EC50 is the midpoint of the concentration-response curve.

The structures appear in SMILES notation. “And” between values parts separate entries of the source, which are not always exact repeats. Equal entries are not always repeated.

For the compound `O=C1C2C3C=CC(O3)C2C(=O)N1OCCCN1CCN(c2cccc(C3=NCCS3)c2)CC1` (stereo not drawn) [FG‐11, 2‐(3‐(4‐(3‐(4,5‐dihydrothiazol‐2‐yl) phenyl) piperazin‐1‐yl) propoxy)‐3a,4,7,7a‐tetrahydro‐1H‐4,7‐epoxyisoindole‐1,3(2H)‐dione], the Ki at 5‐HT2C receptor was found to be 40500 nM. In addition, on 5‐HT2A receptor [1], the Ki is 1480 nM. Besides, at 5‐HT2A receptor [2], the Emax turned out to be 28.7% and the concentration for half-maximal inhibition (IC50) stood at 4390 nM. For the same compound, on 5‐HT1A receptor [3], the Ki was found to be 2200 nM. In addition, at 5‐HT1A receptor [4] (rat hippocampal membranes), the “Emax (%) ± SEM, 5‐HT1A receptor G‐protein stimulation” value (from here on “Emax (%) ± SEM”) is “No activity” and the “pEC50, 5‐HT1A receptor G‐protein stimulation” value is “No activity”. The “EC50 (95% CI, μM), 5‐HT1A receptor G‐protein stimulation” value on 5‐HT1A receptor [4] (setting [5]) is reported as “No activity”. In addition, the “agonist activity for the 5‐HT1A receptor (classification in words)” value at 5‐HT1A receptor [4] (efficacy compared with 8‐OH‐DPAT) is recorded as “do not express any agonist activity”.

On to `O=C(NCCCN1CCN(c2cccc(C3=NCCS3)c2)CC1)C1CC2C=CC1C2` (stereo not drawn) [FG‐14, Exo‐N‐(3‐(4‐(3‐(4,5‐dihydrothiazol‐2‐yl)phenyl)piperazin‐1‐yl)propyl) bicyclo [2.2.1] hept‐5‐ene‐2‐carboxamide], for which the values for the inhibitory constant (Ki) on 5‐HT2C receptor, on 5‐HT2A receptor [1] and at 5‐HT1A receptor [3] were 72 nM, 430 nM and 340 nM, respectively. In addition, the “EMAX, maximal inhibitory effect on 5‐HT‐induced contractions in the rat ileum” value at 5‐HT2A receptor [2] was determined as 22.48%. Also, the IC50 against 5‐HT2A receptor [2] was determined as 2590 nM. The EC50 at 5‐HT1A receptor [4] (setting [5]) is 23.3 µM. Further, the Emax at 5‐HT1A receptor [4] (rat hippocampal membranes, read-out: Emax (%) ± SEM, 5‐HT1A receptor G‐protein stimulation) was found to be 133 ± 5.7%.

Consider `O=C(NCCCN1CCN(c2ccccc2C2=NCCS2)CC1)C1CC2C=CC1C2` (stereo not drawn) [FG‐16, Endo‐N‐(3‐(4‐(2‐(4,5‐dihydrothiazol‐2‐yl)phenyl)piperazin‐1‐yl)propyl) bicyclo[2.2.1] hept‐5‐ene‐2‐carboxamide], for which the Ki on 5‐HT2C receptor was 4830 nM; at 5‐HT2A receptor [1], 1370 nM; at 5‐HT1A receptor [3], 25 nM and 25.1 nM. For the same compound, the maximal response (Emax) at 5‐HT2A receptor [2] came to 39.1%. This compound also displayed an IC50 against 5‐HT2A receptor [2] of 6350 nM. In addition, the “Emax (%) ± SEM” value on 5‐HT1A receptor [4] (rat hippocampal membranes) worked out at 127 ± 3.2%. Moreover, the concentration for a half-maximal effect (EC50) on 5‐HT1A receptor [4] (setting [5]) came to 41 µM.

With `O=C(NCCCN1CCN(c2cccc(C3=NCCS3)c2)CC1)C1CC2C=CC1C2` (stereo not drawn) [FG‐17, Endo‐N‐(3‐(4‐(3‐(4,5‐dihydrothiazol‐2‐yl)phenyl)piperazin‐1‐yl)propyl) bicyclo[2.2.1]hept‐5‐ene‐2‐carboxamide], the inhibitory constant (Ki) at 5‐HT2C receptor worked out at 1660 nM; at 5‐HT2A receptor [1], 6060 nM; on 5‐HT1A receptor [3], 823 nM. Also, the Emax at 5‐HT2A receptor [2] turned out to be 25%. In addition, the midpoint of inhibition at 5‐HT2A receptor [2], the IC50, lay at 1250 nM. At 5‐HT1A receptor [4] (rat hippocampal membranes), the “Emax (%) ± SEM” value was 134 ± 2.5%. For the same compound, the EC50 at 5‐HT1A receptor [4] (setting [5]) was 21.1 µM.
